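Where inhibition never reached the appropriate level, the endpoint shown equals the highest concentration tested. Otherwise, values were interpolated linearly from a five-concentration, 48-hour dose response in 96-well plates. Abbreviation: GI50, concentration required for 50% inhibition of growth. TGI: total growth inhibition.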
Assays:
Assay in all cases: NCI tumour cell line growth inhibition, 48 h
[1] = tested on: MDA-N
[2] = tested on: OVCAR-4 ovarian
[3] = tested on: MDA-MB-435
[4] = tested on: KM12 colon
[5] = tested on: 786-0 renal
[6] = tested on: MCF7 breast
[7] = tested on: NCI-H522 lung
[8] = tested on: NCI-H460 lung
[9] = tested on: HCT-15 colon
[10] = tested on: UACC-257 melanoma
[11] = tested on: HS 578T breast

| Structure (SMILES) | TGI [1] | TGI [2] | TGI [3] | TGI [4] | TGI [5] | TGI [6] | TGI [7] | TGI [8] | TGI [9] | TGI [10] | TGI [11] | GI50 [4] | GI50 [11] | GI50 [8] | GI50 [9] | GI50 [3] | GI50 [6] | GI50 [7] | GI50 [10] |
| --- | --- | --- | --- | --- | --- | --- | --- | --- | --- | --- | --- | --- | --- | --- | --- | --- | --- | --- | --- |
| COc1cc(S(=O)(=O)Nc2nc(-c3ccc(N4C(=O)/C(=C/c5ccccc5[N+](=O)[O-])N=C4c4ccccc4)cc3)cs2)ccc1Cl | > 100 µM | > 100 µM | > 100 µM | > 100 µM | > 100 µM | > 100 µM | > 100 µM | > 100 µM | > 100 µM | > 100 µM | – | – | – | – | – | – | – | – | – |
| Cl/C(=C\C=Nc1ccc(I)cc1)c1ccc2ccccc2c1 | – | 46.5 µM | 28 µM | 33.5 µM | 40.7 µM | > 87.5 µM | > 100 µM | > 79.4 µM | 33.8 µM | 33.8 µM | > 87.7 µM | – | – | – | – | – | – | – | – |
| COC(=O)Nc1nc2ccc(NC(=O)c3cccs3)cc2[nH]1 | 36.7 µM | > 100 µM | 39.4 µM | > 100 µM | > 100 µM | > 100 µM | – | > 100 µM | > 100 µM | – | 44.7 µM | – | – | – | – | – | – | – | – |
| CC(C)(C)OC(=O)NC1CCC(C(C)(C)C)CC1 (stereo unspecified) | – | > 100 µM | – | > 100 µM | – | > 100 µM | > 100 µM | > 100 µM | > 100 µM | > 61.8 µM | – | – | – | – | – | – | – | – | – |
| C[C@]12CC[C@H](O)CC1=CC[C@@H]1[C@@H]2CC[C@]2(C)C(=N/O)/C(=C/c3ccc([N+](=O)[O-])cc3)C[C@@H]12 | 28.4 µM | > 100 µM | 40.8 µM | 60.1 µM | 7.67 µM | 18.2 µM | 16.4 µM | 18.5 µM | 29.8 µM | 16.5 µM | 63.5 µM | – | – | – | – | – | – | – | – |
| CCCC(=O)O.CCCC(=O)O.CCCC(=O)O.CCCC(=O)O.[Rh].[Rh] | – | – | – | 0.366 µM | – | – | – | 0.327 µM | 0.762 µM | – | 13 µM | 0.172 µM | 0.157 µM | 0.165 µM | 0.155 µM | – | – | – | – |
| CC(=O)NNC(=O)C1CCCCN1 (stereo unspecified) | > 100 µM | > 100 µM | > 100 µM | > 100 µM | > 100 µM | > 100 µM | > 100 µM | > 100 µM | > 100 µM | > 100 µM | > 100 µM | – | – | – | – | – | – | – | – |
| C=CCSSCC=C | > 80.2 µM | > 100 µM | > 84.7 µM | > 100 µM | > 56.5 µM | > 100 µM | > 100 µM | > 100 µM | > 100 µM | > 100 µM | 97.4 µM | – | – | – | – | – | – | – | – |
| C=C1C(=O)OC2CC1CCC1(C)OC1CCC(C)=CCCC2(C)O (stereo unspecified) | – | 11.9 µM | – | 12.9 µM | – | 9.64 µM | 3.69 µM | 7.85 µM | 7.79 µM | 13.9 µM | – | – | – | – | – | – | – | – | – |
| O=C1OCc2cc3cc4c(cc3c(-c3ccc5c(c3)OCO5)c21)OCO4 (tested in a mixture with another compound) | 19.2 µM | > 100 µM | > 100 µM | > 100 µM | – | > 100 µM | – | > 100 µM | > 100 µM | > 100 µM | 80.9 µM | – | – | – | – | – | – | – | – |
| CN1CC(CNC(=O)OCc2ccccc2)CC2c3cccc4c3c(cn4C)CC21 (stereo unspecified) | – | – | 3.53 µM | 4.65 µM | – | 3.29 µM | 3.33 µM | 3.55 µM | 3.52 µM | 2.81 µM | 6.96 µM | 2.14 µM | 1.99 µM | 1.83 µM | 1.69 µM | 1.81 µM | 1.77 µM | 1.73 µM | 1.42 µM |
| Br/C(=N\Nc1nn[nH]n1)c1ccncc1 | > 100 µM | > 100 µM | > 100 µM | > 100 µM | > 100 µM | > 100 µM | > 100 µM | > 100 µM | > 100 µM | > 100 µM | > 100 µM | – | – | – | – | – | – | – | – |
| O=C(Nc1ccc(Cl)c(Cl)c1)N1N=C2c3ccccc3CCC2C1c1ccc(Cl)cc1 (stereo unspecified) | > 100 µM | > 100 µM | > 100 µM | > 100 µM | > 100 µM | > 100 µM | > 100 µM | > 100 µM | > 100 µM | > 100 µM | > 100 µM | – | – | – | – | – | – | – | – |
| O=C(COc1ccc(Cl)c(Cl)c1)N(Cc1ccccc1)Cc1ccc[n+](Cc2ccc(Cl)cc2S(=O)(=O)F)c1 | – | > 100 µM | > 100 µM | 56.6 µM | > 100 µM | > 100 µM | > 100 µM | > 100 µM | > 100 µM | > 100 µM | > 100 µM | – | – | – | – | – | – | – | – |
| O=C(Oc1ccc(Cl)cc1[N+](=O)[O-])c1ccccc1 | – | > 100 µM | – | > 100 µM | – | – | – | > 100 µM | > 100 µM | > 100 µM | – | – | – | – | – | – | – | – | – |
| O=C1CCCC2C3CC(CN12)C1CCCCN1C3 (stereo unspecified) | > 100 µM | > 100 µM | > 100 µM | > 100 µM | > 100 µM | > 100 µM | > 100 µM | > 100 µM | > 100 µM | > 100 µM | > 100 µM | – | – | – | – | – | – | – | – |
| Cc1cc(C)nc(SCCc2cccc[n+]2C)n1 | > 100 µM | > 100 µM | > 100 µM | > 100 µM | > 100 µM | > 100 µM | > 100 µM | > 100 µM | > 100 µM | > 100 µM | > 100 µM | – | – | – | – | – | – | – | – |
| O=C1C(Cl)C(c2cc3cc(Br)ccc3nc2Cl)N1c1ccc(Cl)cc1 (stereo unspecified) | 15.9 µM | 9.4 µM | 17.7 µM | > 25 µM | 9.22 µM | 7.47 µM | 8.25 µM | 20.9 µM | 13.3 µM | 12.6 µM | > 25 µM | – | – | – | – | – | – | – | – |
| COc1c(OC/C=C(\C)CCC=C(C)C)ccc2ccc(=O)oc12 | > 100 µM | > 100 µM | > 100 µM | > 100 µM | > 100 µM | > 100 µM | > 100 µM | – | > 100 µM | > 100 µM | > 100 µM | – | – | – | – | – | – | – | – |
| CC(C)(C)c1ccc(/C=N/NC(=O)CSCC(=O)N/N=C/c2ccc(C(C)(C)C)cc2)cc1 | – | > 100 µM | – | 6.18 µM | 4.4 µM | 6.05 µM | 21.9 µM | 15 µM | 15.8 µM | 15.2 µM | 7.61 µM | – | – | – | – | – | – | – | – |
| CC[C@]12C=CCN3CC[C@@]4(c5cc(Br)c(OC)cc5N(C)[C@H]4[C@@](O)(C(=O)N[C@@H](Cc4ccc(O)cc4)C(=O)OC)[C@@H]1O)[C@@H]32 | 49.1 µM | 40 µM | 35.8 µM | 38.5 µM | > 100 µM | > 100 µM | 54.4 µM | 40.5 µM | 76.3 µM | 33.9 µM | 54.2 µM | – | – | – | – | – | – | – | – |
| COc1ccc(OC)c(CC(C)N)c1 (stereo unspecified) | – | > 100 µM | – | > 100 µM | > 100 µM | – | > 100 µM | > 100 µM | > 100 µM | > 100 µM | – | – | – | – | – | – | – | – | – |
